Results reported in patent US6451844B1, “Use of menthyl-2 pyrrolidone-5-carboxylate as an insect repellent” (Quest International BV, priority 1998, dated 2002).

Tested on: Aedes aegypti
Assay: Insect repellency test (mosquitoes attempting to bite treated warmed membrane targets)
Type: in vivo
Conditions: for % Repellency initially / % Repellency After 1 Hour: neat compound, 30 microlitres on membrane, 27° C.; for % Repellency initially: 10 minute period directly after application; for % Repellency After 1 Hour: 10 minute period one hour after application
Method: Four test chambers were prepared using 300 mm 200 gauge […] tubing. The synthetic plastics tubing was attached to oblong stainless steel frames (150 mm by 150 mm by 900 mm) using double-sided adhesive tape. 200 mm squares of cotton netting were used to cover the ends of the chambers and were secured using adhesive tape. Mosquitoes (naive insects of the species Aedes aegypti, 4 to 7 days old) were introduced into each chamber 8 and the chambers 8 were kept in a separate room until the test was ready to begin. The exhaust fan which vents the room in which the test was performed was switched on. Four targets 5 (only two shown) were prepared as follows: double layers of semi-porous membrane were stretched over the open ends of four open ended glassware bulbs (diameter of open end 43 mm) and secured using elastic bands. Testing was carried out at 27° C. The membranes were kept moist and warmed above the ambient temperature throughout the test by passing a supply of water ([…]) through the glassware bulbs, so as to contact the inner surface of the membranes. […] This was repeated with two other membranes and the fourth membrane was left untreated as a control. The chambers 8 containing the mosquitoes were positioned so that each chamber had one netting end pressed against one of the targets 5. Glass partitions in the form of a cross 6 were used to separate each target 5 and chamber end from its neighbour. […] The separation of the membranes ensured that air passing over a particular membrane would pass through only one test chamber 8. The filters 2, 3 were used to remove volatile elements from the air passing over the mosquitoes; filter 2 contained activated charcoal and filter 3 contained a molecular sieve (Union Carbide type 5A zeolite). The material in each filter 2, 3 was held within the cells of a 25 mm thick sheet of aluminium honeycomb sandwiched between two sheets of stainless steel mesh held in an aluminium frame. The filters 2,3 were bolted by their frames to the inside of an aluminium tunnel such that air passing along the tunnel passed through the filters 2, 3. […] An electronic timer was used to project the date and time onto the screen, and the video recorder 14 was used to record the data. The mosquitoes in the test chambers 8 were activated by introduction of a human breath stimulus upwind of the targets 5 and the number of insects attempting to bite each target 5 over the next ten minute period was recorded. After ten minutes, the recording was stopped and the test chambers 8 removed from their position immediately downwind of the targets 5. […] The numbers of mosquitoes attempting to bite each of the targets 5 was noted every 10 seconds throughout each ten minute recording period. The 60 readings were used to produce a figure for the mean number of insects biting each target 5 during the ten minute test periods. The reading obtained for the untreated target 5 was used to give a measure of the basic avidity of the mosquitoes used in the test and this was taken into account when analysing the results. […] The above lotions were tested for insect repellency using the method outlined in Example 1.

| SMILES | % Repellency initially [%] | % Repellency After 1 Hour [%] | insect repellent effectiveness (in words) (compared with hydrolysis product menthol, maintained for at least 1 hour after application to a substrate) |
| --- | --- | --- | --- |
| CCN(CC)C(=O)c1cccc(C)c1 [DEET, N,N-diethyl-m-toluamide] | 93 | 75 | – |
| CC1CCC(C(C)C)C(O)C1 (stereo not shown) [Menthol, menthol] | 49 | 25 | – |
| CC1CCC(C(C)C)C(OC(=O)C2CCC(=O)N2)C1 (stereo not shown) [Menthyl 2-pyrrolidone-5-carboxylate] | 80 | 59 | more effective insect repellent than its hydrolysis product, menthol |
